Patent publication US10975354B2, “Transdifferentiated cell populations and methods of use thereof” (ORGENESIS LTD., priority 2017, dated 2021)

Columns and labels:
[1] = tested on: DsRed+ cells; assay: Reprogramming of DsRed+ cells with Li followed by pTFs in the presence of HDACi; format: cell-based, human; conditions: combination with 10 mM Li for 48 hours; 5 mM SB or 1 μM SAHA during 2+1 TD
Experimental: Wnt-pathway activation was induced by supplementing cell medium with 10 mM Li for 48 hours. Subsequently, cells were transdifferentiated by pancreatic transcription factors (pTFs) in the presence of 5 mM sodium butyrate (SB) (FIG. 44A) or 1 μM suberanilohydroxamic acid (SAHA) (FIG. 44B). […] Bars show ratios of transcript levels of cells treated with HDACi and pTFs compared with cells treated with pTFs alone. Transcript levels were normalized to β-actin transcript levels. N=4 independent experiments with cells from two donors. * P-value<0.05.
Representative HDACi sodium-butyrate (SB) and suberanilohydroxamic acid (SAHA) were used to induce histone hyperacetylation, which is associated with permissive chromatin structure. Methods: Primary liver cells were incubated with 10 mM lithium (Li) for 48 hours to activate Wnt signaling. Subsequently, cells were contacted with pancreatic transcription factors according to the “2+1” transdifferentiation protocol described in Example 12 in the presence of 5 mM SB (Na-Butyrate) or 1 μM SAHA.

[2] = tested on: eGFP+ cells; assay: Transdifferentiation of DKK-treated eGFP+ cells in the presence of sodium butyrate; format: cell-based, human; conditions: DKK 3 μg/ml for 48 hours, then pTFs with 5 mM sodium butyrate
Experimental: Wnt-pathway activation was induced by supplementing cell medium with 10 mM Li for 48 hours. Subsequently, cells were transdifferentiated by pancreatic transcription factors (pTFs) in the presence of 5 mM sodium butyrate (SB) (FIG. 44A) or 1 μM suberanilohydroxamic acid (SAHA) (FIG. 44B). In the GFP+ cell population, a similar effect was observed when Wnt-pathway was inhibited by supplementing serum-based medium with 3 μg/ml Dickkopf (DKK) for 48 hours followed by the transdifferentiation of cells by pTFs in the presence of 5 mM sodium butyrate (SB) (FIG. 44C). Bars show ratios of transcript levels of cells treated with HDACi and pTFs compared with cells treated with pTFs alone. Transcript levels were normalized to β-actin transcript levels. N=4 independent experiments with cells from two donors. * P-value<0.05.
Similarly, SB (HDAC inhibitor) treatment alleviated the effect of Wnt signaling inhibition of eGFP+ cells (FIG. 44C).

[3] = tested on: adult human liver cells; assay: Glucose-regulated insulin secretion (radioimmunoassay) with Ad-CMV-Pdx-1 supplemented with Wnt3A or DKK3; format: cell-based; conditions: Ad-CMV-Pdx-1 and soluble factors, 5 days; 2 mM then 17.5 mM glucose
Experimental: Adult human liver cells were treated with Ad-CMV-Pdx-1 and soluble factors, as previously reported, supplemented with Wnt3A (50 ng/ml R&D or DKK3 (3 μg/ml R&D). After 5 days, insulin secretion was analyzed by static incubations at low followed by high glucose concentrations (2 mM and 17.5 mM glucose in KRB, respectively). Insulin secretion is measured using the human insulin radioimmunoassay kit (DPC; n≥8 from 3 different experiments) and compared to untreated cells (Cont). *p<0.01 compared to Ad-CMV-Pdx-1 alone, using Student's t-test analysis.
C-peptide and insulin secretion were measured by static incubations of primary cultures of adult liver cells 6 days after the initial exposure to the viral treatment, as described (Sapir et al, (2005) ibid; Meivar-Levy et al, (2007) ibid; Aviv et al, (2009) ibid). The glucose-regulated C-peptide secretion was measured at 2 mM and 17.5 mM glucose, which was determined by dose-dependent analyses to maximally induce insulin secretion from transdifferentiated liver cells, without having adverse effects on treated cells function (Sapir et al, (2005) ibid; Meivar-Levy et al, (2007) ibid; Aviv et al, (2009) ibid). C-peptide secretion was detected by radioimmunoassay using the human C-peptide radioimmunoassay kit (Linco Research, St. Charles, Mo.; <4% cross-reactivity to human proinsulin). […]

[4] = tested on: eGFP+ cells; assay: Pancreatic hormones gene expression (real-time RT-PCR) in eGFP+ cells supplemented with DKK3; format: cell-based, human; conditions: Ad-CMV-Pdx-1, 5 days, DKK3 0.5 μg/ml
Experimental: Pancreatic hormones gene expression was studied by Quantitative real-time RT-PCR compared to the control-treated cells.
Total RNA was isolated and cDNA was prepared and amplified, as described previously (Ber et al, (2003) J Biol Chem 278: 31950-31957; Sapir et al, (2005) ibid). Quantitative real-time RT-PCR was performed using ABI Step one plus sequence Detection system (Applied Biosystems, CA, USA), as described previously (Sapir et al, (2005) ibid; Meivar-Levy et al, (2007) ibid; Aviv et al, (2009) J Biol Chem 284: 33509-33520).

[5] = tested on: human liver cultures; assay: Glucose stimulated insulin secretion with WNT3A or DKK added during TD; format: cell-based; conditions: added during TD (ectopic pTFs); measured five days later
Experimental: FIGS. 41A-41G show active WNT signaling controls the activation of the pancreatic lineage in liver. (FIG. 41A) Efficient reprogramming of liver to pancreas relies on active WNT signaling. WNT signaling was activated by Wnt3A, or, alternatively, blocked by DKK, concomitantly to ectopic pTFs expression (TD) in human liver cultures. Glucose stimulated Insulin secretion was measured five days later. Results are average and standard error (SE) of 3-6 repeats from 3 different donors. * P-value<0.05; ** P-value<0.005; *** P-value<0.0005. […] Efficiency of reprogramming was measured by the activation of pancreatic genes expression and relative insulin secretion induced by high glucose concentrations (17.5 mM). […]
100,000 cells/well were seeded in a 6-wells plate in a low glucose DMEM media supplemented with 2 mM L-glutamine, 10% serum, antibiotics, 10 mM Nicotinamide, 20 ng/ml EGF, and 5 nM exendin4. […] After 48 hours the cells were harvested, counted, and 100,000 cells were infected with 50MOI of Ad-MafA and re-plated as above. 72 hours later the cells were analyzed for gene expression and insulin secretion, as detailed below. […]
Glucose regulated insulin secretion (FIGS. 38D and 38F, and 41A) was measured by radioimmunoassay kit (DPC, Los-Angeles, Calif.) as described previously (Berneman-Zeitouni D et al., ibid). […]

Q: Which “reprogramming of DsRed+ cells (expression of PDX-1, Isl-1, Pax-4, Nkx6.1)” value [1] does the source give for `O=C(CCCCCCC(=O)Nc1ccccc1)NO` [SAHA, suberanilohydroxamic acid] here?
A: Its value is “increased reprogramming”.

Q: With `CCCC(=O)[O-].[Na+]` [SB, sodium-butyrate] as the molecule, how does the “effect of Wnt signaling inhibition of eGFP+ cells” value [2] read?
A: The value was “alleviated”.

Q: What about the “reprogramming of DsRed+ cells (expression of PDX-1, Isl-1, Pax-4, Nkx6.1)” value [1] of the same molecule?
A: The value was “increased reprogramming”.

Q: With “DKK3: Dickkopf-related protein 3 (R&D), an inhibitor of the Wnt signaling pathway” as the molecule, how does the “Pdx-1-induced glucose-regulated insulin secretion” value [3] read?
A: The value was “completely abolished”.

Q: What about the “transdifferentiation capacity of eGFP cells” value [4] of the same molecule?
A: Its value is “totally abolished”.

B1: Wnt3A: WNT3A protein (R&D), Wnt-pathway agonist (protein, UniProt P56704 19-352, looked up)
Protein Wnt-3a: SYPIWWSLAVGPQYSSLGSQPILCASIPGLVPKQLRFCRNYVEIMPSVAEGIKIGIQECQHQFRGRRWNCTTVHDSLAIFGPVLDKATRESAFVHAIASAGVAFAVTRSCAEGTAAICGCSSRHQGSPGKGWKWGGCSEDIEFGGMVSREFADARENRPDARSAMNRHNNEAGRQAIASHMHLKCKCHGLSGSCEVKTCWWSQPDFRAIGDFLKDKYDSASEMVVEKHRESRGWVETLRPRYTYFKVPTERDLVYYEASPNFCEPNPETGSFGTRDRTCNVSSHGIDGCDLLCCGRGHNARAERRREKCRCVFHWCCYVSCQECTRVYDVHTCK
Q: What does the source list for B1?
A: Pdx-1-induced glucose-regulated insulin secretion [3]: increased; glucose-regulated insulin secretion [5]: marked increase
